In BindingDB's records for PubMed 36069713 (China Pharmaceutical University, 2022):

Experiment: Agonist activity at STING in STING knockout human THP-1 cells harboring IRF-inducible luciferase reporter construct assessed as increase in relative […] unit incubated for 12 hrs by Quanti-luc reagent based assay

CC[C@H](CC(=O)c1cc2cc(OC)c(OC)cc2[se]1)C(=O)O
EC50: > 100 µM
